Measured values as given in patent US10017741B2, “Compositions and methods for obtaining enriched mesenchymal stem cell cultures” (StemCell Technologies Inc., priority 2013, dated 2018).

Assays:
[1] = test system: BM-derived cultures (CD45+/CD11b+ macrophages, Sca1+ monocytes); experiment: Flow cytometry of BM-derived expansion cultures; assay type: cell-based, mouse; conditions: BM-derived cultures, 1 μM up to P2
Procedure: (§1) c. Expansion of Human BM and Mouse BM and CB-Derived Cells Assay • 1. […] Cultures were allowed to grow for 10-14 days until adherent cells achieved 70 to 80% confluence. Mouse cultures were maintained under normal (5% CO2) or hypoxic conditions (5% CO2/5% O2) at 37 C in a cell culture incubator. Human cultures were maintained under 5% CO2 at 37 C in a humidified cell culture incubator. • 3. Adherent cells were passaged by releasing cultures from flask. Cultures were washed with 5 mL PBS and then 5 mL of 0.25% trypsin solution ([…] catalogue #07901) was added and the flasks incubated for 10 min at 37 C. To each flask, 5 mL complete medium was added to stop trypsin activity. • 4. Released cells were collected into a tube and centrifuged at 300×g for 5 minutes. • 5. Cells were resuspended in 2 mL of medium and counted using a hemocytometer. • 6. […] P1 cultures were incubated until they reached 70 to 80% confluence. • 8. Passaged cultures can be used at any time from P0 to P10 as needed for different applications.
(§2) d. Flow Cytometry Analysis • 1. Cultures of BM and CB-derived cells were trypsinized for 10 minutes and an equal volume of complete medium was added to cultures to stop trypsin activity • 2. Cell suspension was filtered through a 40 μm strainer, and cells counted using a hemocytometer • 3. Suspension was spun down at 300×g for 5 minutes. • 4. Supernatant was removed and cell pellet resuspended in FACS buffer (PBS with 2% FBS and 1 mM EDTA) • 5. A total of 1×10^5 cells in 300 μL FACS buffer was used for each flow cytometry analysis tube, including unstained, viability, compensation, and isotype controls. • 6. Cell suspensions were stained with fluorophore-labeled antibodies against CD45, CD11b, and Sca1, CD29, and viability dye. • 7. Cell suspensions were analyzed on a flow cytometer using compensation and isotype control to determine laser voltage and gating. • 8. Samples were gated on viable CD45^+ cells and 10,000 events per sample were collected. Alternatively, cells were gated on viable CD45^− cells and out of this gate the proportion of CD29+/Sca1^+ cells obtained.

[2] = test system: CB-derived cultures (CD45+/CD11b+ macrophages, Sca1+ monocytes); experiment: Flow cytometry of CB-derived expansion cultures; assay type: cell-based, mouse; conditions: CB-derived cultures, 1 μM up to P2
Procedure: as §1, §2

Structure (SMILES): COc1cc(Oc2ccnc3cc(OC)c(OC)cc23)ccc1NC(=O)NC(C)c1nccs1 (centres unmarked) [KI20227, N-{4-[(6,7-dimethoxy-4-quinolyl)oxy]-2-methoxyphenyl}-N0-[1-(1,3-thiazole-2-yl)ethyl]urea]
- CD45+/CD11b+ mature macrophages, of viable cells [1]: < 2%
- CD45+/CD11b+ mature macrophages, of viable cells [2]: < 2%
